Key:
histone acetylation = conditions: cited from earlier work
NLRP3 inflammasome = NLRP3 inflammasome (Homo sapiens, UniProt Q96P20); conditions: cited from earlier work
[1] = target: hydroxy-carboxylic acid receptor 2 (HCA2, GPR109A) (Mus musculus, UniProt Q9EP66); conditions: in vivo; cited from earlier work
[2] = system: primary human intestinal organoids; assay type: cell-based; conditions: TNFα 40 ng/mL, 10 μM, 18 hours
Protocol: (§1) To measure the effect of (R)-3-HB on inflammation of primary human intestinal organoids, healthy large intestine samples of a donor were cultured for 8 weeks in vitro prior to experiments. Method as used in Hannan et al., Stem Cell Reports. Vol. 1, 293-306 Oct. 15, 2013.
1) To induce inflammation, organoids were treated with TNFα (40 ng/mL) alone or in combination with butyrate (10 μM), (R)-3-HB (10 μM), or butyrate and (R)-3-HB for 18 hours. Subsequently, cells were lysed and RNA was isolated for cDNA synthesis and measurement of mRNA expression levels of inflammation factors, NF-κB and TNFα, by qPCR.

[3] = system: primary human intestinal organoids; assay type: cell-based; conditions: TNF-α 60 ng/mL, 24 hours
Protocol: 3) The effect of (R)-3-HB and the related SCFA butyrate on the inflammatory response exerted by primary human intestinal organoids upon co-incubation with TNF-α as inflammatory stimulus was measured. Primary human intestinal organoids were cultured for 8 weeks prior to experiments as described in Hannan et al. (2013) Stem Cell Reports.
To induce inflammation, organoids were treated with 60 ng/mL TNF-α alone or in combination with different concentrations of the sodium salts of (R)-3-HB or butyrate for 24 hours. Subsequently, cells were lysed and RNA was isolated using the RNeasy mini kit (Qiagen Ltd, Germany) for synthesis of cDNA. mRNA expression levels of IL-23 was measured by qPCR using the SensiMix SYBR low-ROX kit (Bioline, UK).
Values were normalized versus untreated control and graphs show the difference of mRNA levels measured in organoids treated with TNF-α alone (set as 0) and those treated with TNF-α and butyrate or (R)-3-HB.

[4] = system: primary human intestinal organoids; assay type: cell-based
Protocol: as §1
2) To induce inflammation, organoids were treated with TNF-α (40 ng/mL) alone or in combination with (R)-3-HB (sodium salts at 10 μM) for 18 hours. Subsequently, cells were lysed and RNA was isolated for cDNA synthesis and mRNA expression levels of a panel of inflammation factors was measured by qPCR.

HCA2 receptor (gpr109A) = HCA2 receptor (gpr109A) (Mus musculus, UniProt Q9EP66); conditions: read-out: EC50 of binding to HCA2 receptor; cited from earlier work
Chain of HCA2 receptor (gpr109A) (Q9EP66 whole entry): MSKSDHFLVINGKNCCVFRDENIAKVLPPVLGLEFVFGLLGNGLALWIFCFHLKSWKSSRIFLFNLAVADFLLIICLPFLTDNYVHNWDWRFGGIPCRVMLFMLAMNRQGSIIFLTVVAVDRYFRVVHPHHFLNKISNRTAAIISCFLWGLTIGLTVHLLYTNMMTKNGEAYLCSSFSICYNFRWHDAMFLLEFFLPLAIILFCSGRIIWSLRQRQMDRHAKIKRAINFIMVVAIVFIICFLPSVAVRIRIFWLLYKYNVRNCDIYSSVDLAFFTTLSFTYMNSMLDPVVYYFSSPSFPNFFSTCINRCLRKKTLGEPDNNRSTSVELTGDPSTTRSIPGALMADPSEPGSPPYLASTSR

[5] = TNF-α 40 ng/mL, sodium salt 10 μM, 18 hours

Chain of NLRP3 inflammasome (Q96P20 whole entry): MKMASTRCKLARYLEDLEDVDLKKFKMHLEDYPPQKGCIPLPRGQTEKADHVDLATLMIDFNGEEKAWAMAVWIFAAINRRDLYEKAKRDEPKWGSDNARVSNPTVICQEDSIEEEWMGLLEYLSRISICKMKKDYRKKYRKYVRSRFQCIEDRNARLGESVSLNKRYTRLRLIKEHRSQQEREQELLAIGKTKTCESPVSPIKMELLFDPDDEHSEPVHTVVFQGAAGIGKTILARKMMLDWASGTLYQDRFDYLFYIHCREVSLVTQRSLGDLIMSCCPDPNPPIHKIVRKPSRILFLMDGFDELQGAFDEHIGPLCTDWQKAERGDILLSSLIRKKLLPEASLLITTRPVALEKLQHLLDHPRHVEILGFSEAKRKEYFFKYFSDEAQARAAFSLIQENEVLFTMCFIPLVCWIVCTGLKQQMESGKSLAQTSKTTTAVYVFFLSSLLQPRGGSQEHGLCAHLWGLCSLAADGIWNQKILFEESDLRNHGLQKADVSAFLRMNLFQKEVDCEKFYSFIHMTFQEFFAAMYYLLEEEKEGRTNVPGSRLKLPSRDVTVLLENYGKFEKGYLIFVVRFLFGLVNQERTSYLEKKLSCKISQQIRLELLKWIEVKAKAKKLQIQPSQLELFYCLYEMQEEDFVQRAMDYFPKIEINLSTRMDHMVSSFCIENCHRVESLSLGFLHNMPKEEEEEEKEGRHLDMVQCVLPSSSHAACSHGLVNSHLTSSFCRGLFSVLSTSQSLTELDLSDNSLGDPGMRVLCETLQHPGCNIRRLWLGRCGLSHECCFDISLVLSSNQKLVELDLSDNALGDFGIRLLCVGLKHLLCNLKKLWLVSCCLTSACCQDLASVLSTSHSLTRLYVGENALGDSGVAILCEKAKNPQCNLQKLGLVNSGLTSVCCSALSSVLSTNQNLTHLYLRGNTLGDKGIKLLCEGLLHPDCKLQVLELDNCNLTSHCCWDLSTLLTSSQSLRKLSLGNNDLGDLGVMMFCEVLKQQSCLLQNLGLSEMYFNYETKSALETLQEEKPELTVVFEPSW
Chain of hydroxy-carboxylic acid receptor 2 (HCA2, GPR109A) (Q9EP66 whole entry): as the sequence (Q9EP66 whole entry) above

Row | Structure (SMILES) | concentration that increases histone acetylation in a dose dependent manner (histone acetylation) | concentration that reduced NLRP3 inflammasome activity (NLRP3 inflammasome) | concentration associated with neuroprotection [1] | NF-κB mRNA expression [2] | TNF-α mRNA expression [2] | impact on IL-23 expression compared with butyrate ([3]; 10-100 μM) | concentrations effective at reducing expression of IL-23 ([3]; sodium salt) | IL-1β mRNA expression vs TNF-α alone [4, 5] | IL-6 mRNA expression vs TNF-α alone [4, 5] | IL-10 mRNA expression vs TNF-α alone [4, 5] | IL-23 mRNA expression vs TNF-α alone [4, 5] | NF-κβ mRNA expression vs TNF-α alone [4, 5] | TGF-β1 mRNA expression vs TNF-α alone [4, 5] | TNF-α mRNA expression vs TNF-α alone [4, 5] | effect on pro-inflammatory regulators of IBD compared with butyrate ([4]; data not shown) | effect on protective regulators of intestinal inflammation compared with butyrate ([4]; data not shown) | EC50 (HCA2 receptor (gpr109A))
1 | CC(O)CC(=O)O (centres unmarked) [3-HB, 3-hydroxybutyric acid] | 1 to 2 mM | 2 to 10 mM | 600-1,000 μM | – | – | – | – | – | – | – | – | – | – | – | – | – | –
2 | C[C@@H](O)CC(=O)O [(R)-3-HB, (R)-3-hydroxybutyrate] | – | – | – | decreased | decreased | greater reducing impact | 10 to 100 µM | decreased | decreased | increased | decreased | decreased | increased | decreased | greater reducing effect than butyrate | greater inducing effect | 318 µM

Source: patent publication US20210023030A1 (priority 2018, published 2021)
